Data from US20240409581A1, “SMALL-MOLECULE PEPTIDE AND USE THEREOF AGAINST METABOLIC-[…] LIVER DISEASE AND FOR REDUCING BODY WEIGHT” (Tunghai University, priority 2023, published 2024).

Legend:
Assay type in all cases: in vivo, C57BL/6JNarl mice (male)
[1] = system: MAFLD-mode mice (diet with 60% kcal fat+30% v/v fructose corn syrup); assay: Biochemical analysis of blood (sALT and serum lipid indices) of MAFLD-mode mice; conditions: eight weeks
Method: (§1) 100 five-week-old C57BL/6JNarl mice (male) were raised in an environment whose temperature was 22-25° C., whose relative humidity was 45%-60%, and which adopted a 12-hour light/12-hour darkness cycle. The mice were fed with common feed and water for three weeks and then randomly divided into 10 groups, whose subsequent treatments are as follows:
(§2) Each of the four peptides was mixed with 0.5% Carboxymethyl Cellulose (CMC) to form a peptide solution, before the peptide solution was fed into the stomach of each mouse in the corresponding group with a syringe.
(§3) The test lasted eight weeks. The body weights of, and the amounts of food consumed by, the mice in each group were measured and recorded each week. The mice were sacrificed at the end of the test, and the livers, spleens, and white adipose tissue of the mice in each group were weighed.
After the test of example 1, blood samples were taken from the mice in each group, and the serum alanine transaminase (sALT), serum triglyceride (sTG), serum total cholesterol (sTC), serum free fatty acid (sFFA), and serum very-low-density lipoprotein (sVLDL) levels of the blood samples were measured.

[2] = system: MAFLD-mode mice (diet with 60% kcal fat+30% v/v fructose corn syrup); assay: Animal test: body, liver, spleen and white adipose tissue weights of MAFLD-mode mice; conditions: for Epididymal white adipose tissue / Final body weight / Liver weight / Mesenteric white adipose tissue / Perirenal white adipose tissue / Spleen weight: eight weeks, high-fat/fructose diet; for Initial body weight: before the eight-week test
Method: as §1
Group 1: This was the blank group. The mice in this group were fed with common animal feed and distilled water.
Group 2: This was the control group. The mice in this group were fed with a diet with 60% kcal fat+30% v/v fructose corn syrup (and a 0.5% carboxymethyl cellulose (CMC) solution) and thereby induced to develop into MAFLD-mode mice.
Group 3: This was the low-dosage YF dipeptide group. The mice in this group were fed with the Tyr-Phe dipeptide at a dose of 10 mg/kg/day, in addition to a diet with 60% kcal fat+30% v/v fructose corn syrup.
Group 4: This was the high-dosage YF dipeptide group. The mice in this group were fed with the Tyr-Phe dipeptide at a dose of 50 mg/kg/day, in addition to a diet with 60% kcal fat+30% v/v fructose corn syrup.
Group 5: This was the low-dosage FY dipeptide group. The mice in this group were fed with the Phe-Tyr dipeptide at a dose of 10 mg/kg/day, in addition to a diet with 60% kcal fat+30% v/v fructose corn syrup.
Group 6: This was the high-dosage FY dipeptide group. The mice in this group were fed with the Phe-Tyr dipeptide at a dose of 50 mg/kg/day, in addition to a diet with 60% kcal fat+30% v/v fructose corn syrup.
Group 7: This was the low-dosage EWYF tetrapeptide group. The mice in this group were fed with the Glu-Trp-Tyr-Phe tetrapeptide (which has the sequence of SEQ ID No.: 1) at a dose of 10 mg/kg/day, in addition to a diet with 60% kcal fat+30% v/v fructose corn syrup.
Group 8: This was the high-dosage EWYF tetrapeptide group. The mice in this group were fed with the Glu-Trp-Tyr-Phe tetrapeptide (which has the sequence of SEQ ID No.: 1) at a dose of 50 mg/kg/day, in addition to a diet with 60% kcal fat+30% v/v fructose corn syrup.
Group 9: This was the low-dosage EWFY tetrapeptide group. The mice in this group were fed with the Glu-Trp-Phe-Tyr tetrapeptide (which has the sequence of SEQ ID No.: 2) at a dose of 10 mg/kg/day, in addition to a diet with 60% kcal fat+30% v/v fructose corn syrup.
Group 10: This was the high-dosage EWFY tetrapeptide group. The mice in this group were fed with the Glu-Trp-Phe-Tyr tetrapeptide (which has the sequence of SEQ ID No.: 2) at a dose of 50 mg/kg/day, in addition to a diet with 60% kcal fat+30% v/v fructose corn syrup.
as §2, §3

[3] = system: MAFLD-mode mice (diet with 60% kcal fat+30% v/v fructose corn syrup); assay: Analysis of the hepatic lipid content (enzymatic colorimetric method) of MAFLD-mode mice; conditions: eight weeks, liver; for hVLDL (hepatic very-low-density lipoprotein): calculated as 1/5 of the hepatic triglyceride level;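 on hTC (hepatic total cholesterol): reported in mg/dL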;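 on hTG (hepatic triglyceride): reported in mg/dL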;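 on hVLDL (hepatic very-low-density lipoprotein): reported in mg/dL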
Method: as §1, §2, §3
After the test of example 1, the mice in each group were sacrificed, and the livers of the mice were collected in order to measure the hepatic lipid content of the liver of each mouse by an enzymatic colorimetric method. The items measured were hepatic triglyceride (hTG), hepatic total cholesterol (hTC), hepatic free fatty acid (hFFA), and hepatic very-low-density lipoprotein (hVLDL), wherein the hVLDL level was calculated as ⅕ of the hepatic triglyceride level.

## Tyr-Phe [YF]
[1]; 10 mg/kg/day
  sALT (serum alanine transaminase): 44.4 ± 15.09 IU/L
  sFFA (serum free fatty acid): 0.932 ± 0.336 mEq/L
  sTC (serum total cholesterol): 155.01 ± 25.12 mg/dL
  sTG (serum triglyceride): 103.38 ± 22.62 mg/dL
  sVLDL (serum very-low-density lipoprotein): 20.68 ± 4.52 mg/dL
[1]; 50 mg/kg/day
  sALT (serum alanine transaminase): 36.3 ± 15.97 IU/L
  sFFA (serum free fatty acid): 0.813 ± 0.243 mEq/L
  sTC (serum total cholesterol): 140.70 ± 22.66 mg/dL
  sTG (serum triglyceride): 95.19 ± 24.70 mg/dL
  sVLDL (serum very-low-density lipoprotein): 19.04 ± 4.94 mg/dL
[2]; 10 mg/kg/day into the stomach
  Epididymal white adipose tissue: 1.452 ± 0.433 g
  Final body weight: 30.22 ± 2.07 g
  Liver weight: 0.996 ± 0.094 g
  Mesenteric white adipose tissue: 0.298 ± 0.088 g
  Perirenal white adipose tissue: 0.526 ± 0.069 g
  Spleen weight: 59.9 ± 8.2 mg
[2]; 50 mg/kg/day into the stomach
  Epididymal white adipose tissue: 1.182 ± 0.265 g
  Final body weight: 28.98 ± 1.76 g
  Liver weight: 0.982 ± 0.085 g
  Mesenteric white adipose tissue: 0.251 ± 0.056 g
  Perirenal white adipose tissue: 0.481 ± 0.080 g
  Spleen weight: 53.8 ± 6.4 mg
[2]; baseline of the 10 mg/kg/day group
  Initial body weight: 22.82 ± 1.01 g
[2]; baseline of the 50 mg/kg/day group
  Initial body weight: 22.84 ± 1.25 g
[3]; 10 mg/kg/day
  hFFA (hepatic free fatty acid): 110.93 ± 21.96 mEq/L
  hTC (hepatic total cholesterol): 11.22 ± 1.23 mg/dL
  hTG (hepatic triglyceride): 41.81 ± 8.32 mg/dL
  hVLDL (hepatic very-low-density lipoprotein): 8.36 ± 1.66 mg/dL
[3]; 50 mg/kg/day
  hFFA (hepatic free fatty acid): 98.90 ± 24.07 mEq/L
  hTC (hepatic total cholesterol): 9.76 ± 1.45 mg/dL
  hTG (hepatic triglyceride): 36.95 ± 8.33 mg/dL
  hVLDL (hepatic very-low-density lipoprotein): 7.39 ± 1.67 mg/dL
